# Key:
# LNCaP = assay: In vitro cytotoxicity, CCK-8 assay; format: cell-based, human; details: Homo sapiens, LNCaP, LNCaP cells, CCK-8, mean ± SD of three trials
# Procedure: (§1) PC-3 and WPMY-1 cells were cultured in Dulbecco’s modiffcation Eagle’s medium (DMEM, Invitrogen, Carlsbad, CA, United States) supplemented with 10% fetal bovine serum (FBS, Hyclone, Logan, UT, United States), 100 U/mL penicillin and 0.1 mg/mL streptomycin (Invitrogen). DU145 cells were cultured in RPMI1640 media supplemented with 10% fetal bovine serum (FBS, Hyclone), 100 U/mL penicillin and 0.1 mg/mL streptomycin (Invitrogen). LNCaP cells were cultured in F12 media supplemented with 10% fetal bovine serum (FBS, Hyclone), 100 U/mL penicillin and 0.1 mg/mL streptomycin (Invitrogen). The cells were incubated at 37°C in a humidified atmosphere with 5% CO2([Chen et al., 2025]; [Jiang et al., 2024]).
# The proliferative capacity of cells was evaluated through the implementation of a Cell Counting Kit-8 (CCK-8) assay, supplied by Dojindo (Japan), to quantify cellular growth. Post-transfection, cells were dispensed into a 96-well microplate at a density of 3 × 10^3 cells per well and incubated for intervals of 0, 24, 48, 72, 96, and 120 h. Following this, 10 μL of the CCK-8 solution was introduced into each well and the plates were returned to the incubator for an additional 2-h period at 37°C under 5% CO2 conditions. Absorbance readings at 450 nm were subsequently taken using an ELISA reader manufactured by Bio Tek (United States) ([Chen et al., 2022]; [Zhou et al., 2024]).
# (§2) The compound concentrations were set at 30, 15, 7.5, 3.75, 1.88, and 0.94 μmol/L. The absorbance (A) was measured at 450 nm using a microplate reader. […] All experiments were repeated three times under identical conditions, and the mean value was taken as the final result.
# (§3) The cytotoxic activity of derivatives 5–24 against three human prostate cancer cell lines (PC-3, LNCaP, and DU145) and one type of human normal prostate epithelial cells was evaluated using the CCK-8 method.
# DU145 = assay: In vitro cytotoxicity, CCK-8 assay; format: cell-based; details: Homo sapiens, DU-145; DU145 cells, CCK-8, mean ± SD of three trials
# Procedure: as §1, with “2024]). […]” for “2024]).”
# as §2, §3
# AR-LBD (GST) = target: T1, AR-LBD (GST) (Rattus norvegicus, UniProt P15207); assay: Fluorescence polarization, PolarScreen AR Competitor Assay, Green
# T1 sequence (P15207 651-882 limits assumed): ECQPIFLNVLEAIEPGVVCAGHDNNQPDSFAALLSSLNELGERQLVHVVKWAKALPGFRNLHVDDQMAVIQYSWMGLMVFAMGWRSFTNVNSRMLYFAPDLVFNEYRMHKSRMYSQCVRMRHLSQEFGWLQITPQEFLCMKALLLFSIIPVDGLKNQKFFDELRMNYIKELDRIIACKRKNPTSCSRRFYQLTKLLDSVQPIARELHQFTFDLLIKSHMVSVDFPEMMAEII
# Procedure: Brieffy, the assay entails titration of the test compound against a preformed complex of Fluormone™AL Green and the AR-LBD (GST). […] Data analysis for the ligand binding assays was performed using Prism software (GraphPad Software, Inc.).
# WPMY-1 = assay: In vitro cytotoxicity, CCK-8 assay (normal prostatic epithelial cells); format: cell-based; details: Homo sapiens; WPMY-1 normal prostatic epithelial cells, CCK-8, mean ± SD of three trials
# Procedure: as §1, with “2024]). […]” for “2024]).”
# as §2, §3
# AR = target: T2, AR (Homo sapiens, UniProt P10275); assay: AR reporter gene (luciferase) assay, co-treatment with 1 nM R1881; format: cell-based; details: 10 μM compound, inhibition rate as ratio to R1881 control, read-out: AR antagonistic activity% (10 μM)
# T2 sequence (P10275 1-920): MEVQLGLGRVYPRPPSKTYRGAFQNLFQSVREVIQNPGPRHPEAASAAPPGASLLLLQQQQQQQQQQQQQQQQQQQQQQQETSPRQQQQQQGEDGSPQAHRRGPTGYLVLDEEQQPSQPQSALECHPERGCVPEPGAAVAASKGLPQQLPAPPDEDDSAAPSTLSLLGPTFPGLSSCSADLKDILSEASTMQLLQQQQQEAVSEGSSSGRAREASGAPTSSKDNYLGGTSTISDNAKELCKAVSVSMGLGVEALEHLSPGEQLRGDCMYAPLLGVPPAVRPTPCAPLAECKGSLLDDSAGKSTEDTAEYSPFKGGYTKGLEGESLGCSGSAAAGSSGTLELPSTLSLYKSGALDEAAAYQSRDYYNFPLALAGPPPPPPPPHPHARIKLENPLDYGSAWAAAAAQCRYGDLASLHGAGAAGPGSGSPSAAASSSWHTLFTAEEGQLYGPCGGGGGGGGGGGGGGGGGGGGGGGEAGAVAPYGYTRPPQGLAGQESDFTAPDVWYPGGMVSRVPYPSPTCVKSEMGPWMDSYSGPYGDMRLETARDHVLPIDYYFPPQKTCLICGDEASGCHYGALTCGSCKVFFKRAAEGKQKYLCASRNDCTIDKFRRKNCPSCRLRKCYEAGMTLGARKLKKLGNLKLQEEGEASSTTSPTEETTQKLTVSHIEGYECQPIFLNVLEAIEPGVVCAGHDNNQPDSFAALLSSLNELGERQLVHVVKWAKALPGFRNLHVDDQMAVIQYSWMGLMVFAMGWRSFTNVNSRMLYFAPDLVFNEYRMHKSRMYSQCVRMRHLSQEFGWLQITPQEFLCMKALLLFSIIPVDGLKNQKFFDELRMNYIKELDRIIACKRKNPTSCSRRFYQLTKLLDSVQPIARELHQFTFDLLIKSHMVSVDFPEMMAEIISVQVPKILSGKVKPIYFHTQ
# Procedure: RLUs were measured using a luminometer (GloMaxTM 96-Microplate Luminometer, Promega) and are reported as the mean ± SEM of three individual experiments. For agonists, fold of induction = LUinduced/RLUuninduced. For antagonists, % of control = 100 × RLU (agonist + antagonist)/RLU (agonist alone). All RLUs were normalized against ffreffy RLUs/Renilla RLUs. Data are expressed as EC50/IC50 values in μM, and the IC50 of […] (μM) was calculated by plotting the data using nonlinear regression analysis in Graph-Pad Prism 5 software.
# PC-3 = assay: In vitro cytotoxicity, CCK-8 assay; format: cell-based, human; details: CCK-8, mean ± SD of three trials
# Procedure: as §1, with “2024]). […]” for “2024]).”
# as §2, §3
IC50 (AR-LBD (GST)),activity at 10 µM (AR),Structure (SMILES),IC50 (LNCaP),IC50 (DU145),IC50 (WPMY-1),"IC50 (PC-3; Homo sapiens, PC-3, PC-3 cells)",IC50 (PC-3; PC-3 cells)
2.74 ± 0.16 µM,49.4 ± 0.8%,"Clc1ccc(OCCc2ccc(CN3CCN(C(c4ccccc4)c4ccccc4)CC3)cc2)cc1 [Compound 21, 1-benzhydryl-4-(4-(2-(4-chlorophenoxy)ethyl)benzyl)piperazine]",16.09 ± 0.12 µM,13.7 ± 0.14 µM,28.65 ± 0.13 µM,< 5 µM,2.83 ± 0.21 µM
3.02 ± 0.24 µM,40.3 ± 1.2%,"c1ccc(C(c2ccccc2)N2CCN(Cc3ccc(CCOc4cccc5ccccc45)cc3)CC2)cc1 [Compound 22, 1-benzhydryl-4-(4-(2-(naphthalen-1-yloxy)ethyl)benzyl)piperazine]",6.78 ± 0.14 µM,15.76 ± 0.09 µM,33.16 ± 0.15 µM,10.1 ± 0.17 µM,–
2.87 ± 0.22 µM,47.3 ± 0.6%,"FC(F)(F)c1ccc(OCCc2ccc(CN3CCN(C(c4ccccc4)c4ccccc4)CC3)cc2)cc1 [Compound 24, 1-benzhydryl-4-(4-(2-(4-(trifluoromethyl)phenoxy)ethyl)benzyl)piperazine]",14.6 ± 0.18 µM,5.76 ± 0.14 µM,> 50 µM,< 5 µM,3.94 ± 0.14 µM

# From article PMC11985751, “Synthesis, bioactivity, and molecular docking studies: novel arylpiperazine derivatives as potential new-resistant AR antagonists” (Frontiers in Chemistry, 2025)
